Laboratory results from patent US20230302022A1, “PREVENTING OR MITIGATING CHEMOTHERAPY INDUCED ALOPECIA USING VITAMIN D” (priority 2016, published 2023).
“Also recorded” adds a separate entry of the source.

What was measured:
[1] = test system: HEKa cells; experiment: Real-time PCR Neuroscience Ion Channels and Transporters array, calcitriol-treated HEKa cells; format: cell-based, human; details: 0.1 μg/mL calcitriol, three independent experiments; for KCNB2 mRNA Regulation Pattern: until 24 hours
Description: The PCR array analysis utilized two groups of genes—those related to Heat Shock Proteins (SABiosciences), and those related to Neuroscience Ion Channels and Transporters (SABioscience). Cell culture: Primary human epidermal keratinocytes (HEKa) were maintained in Epilife Medium (Cascade Biologics, Inc., Portland OR) along with Human Keratinocyte Growth Supplement (Cascade Biologics, Inc., Portland OR). […] D3 treatment of HEKa cells: […] Vehicle control group of cells were treated with 5 mL media containing 1 μL of ethanol. Cells were harvested 3, 6, 16, 24, 48, or 72 hours after the start of the treatment. RNA isolation: Cells were lysed for RNA isolation at different treatment times using the RNeasy Mini kit (Qiagen, Inc., Valencia CA) following the manufacturer's instructions. RNA was quantified by measuring optical density at 260 nm. First Strand Synthesis: […] Real-time PCR: Products from the first strand synthesis were diluted with water, mixed with the SYBR green master mix (SABiosciences., Frederick MD) and loaded onto PCR arrays. Real time PCR was run on the PCR Arrays (Heat Shock Protein Arrays, and Neuroscience and Ion Channel Arrays) (SABiosciences, Frederick MD) on a Biorad CFX96. Data analyses were performed using the PCR array data analysis software available on the SABiosciences website.

[2] = test system: SKMEL-28 (melanoma); experiment: Cell growth / viability assay, SKMEL-28; format: cell-based
Description: The drug treatment period was usually three days. At the end of the three days, the background OD of the 96-well plate was read at 280 nm, before 20 μL of the “Substrate Cell Titer 96 Aqueous One Solution Reagent” (Promega) was added to each well. […] The net OD increase was calculated by subtracting the pre-substrate OD reading. The impact of the drug on the cells was calculated by comparing the OD at different concentrations in relation to the OD of the control wells (without the drug). The results of the Net OD as a function of drug concentration was plotted and used to determine ED50 values.

[3] = test system: MIAC51 (chloroleukemia cells); experiment: Chloroleukemia (MIAC51) in rats: cure / survival under chemotherapy with topical calcitriol; format: in vivo, rat
Description: For experiments in which rats were transplanted with chloroleukemia, on Day 5 after birth, rats were randomly divided into three groups of 45 each. All rats received 1×10^5 chloroleukemic cell line MIAC51 (i.p.) in 0.1 mL of serum free (SF) RPMI. MIAC51 were cultured in RPMI 1640 supplemented with L-glutamine and 10% fetal bovine serum at 37° C. in a 5% CO2, 100% humidity incubator. Cells were grown to 50% confluency (1.5×106 mL) collected in 50 mL conical tubes, centrifuged at 600 g×10 min. at room temperature and resuspended in SF-RPMI at a concentration of 1×10^6/mL. Group 1 rats received no further treatment. Group 2 rats received topical vehicle and CTX on day 13. […] Topical applications were performed as described above.
On day 23 after birth, a sample of blood was taken from all rats and differentials performed. Rats with leukemia were sacrificed, rats without leukemia were kept and a second differential performed on day 31, at any point if leukemia was detected, animals were sacrificed by CO2 asphyxiation.
On day 5 after birth all rats received 1×105 MIAC51 intraperitoneally in 0.1 mL of serum free (SF) RPMI. MIAC51 were cultured in RPMI 1640 supplemented with L-glutamine and 10% fetal bovine serum at […] in a 5% CO2, 100% humidity incubator. Cells were grown to 50% confluency (1.5×106 mL) collected in 50 mL conical tubes, centrifuged at 600 g for 10 minutes at room temperature and resuspended in SF-RPMI at a concentration of 1×10^6/mL prior to injection.
[…]

[4] = test system: Gottingen Minipigs; experiment: 4-week dermal toxicity study in Gottingen Minipigs; details: twice daily, 29 consecutive days, 2.1 mL
Description: Observations for morbidity, mortality, injury, and the availability of food and water were conducted twice daily for all animals. Clinical observations were conducted weekly.

[5] = test system: Sprague-Dawley or Long Evans rats; experiment: CIA in 5-day-old Sprague-Dawley or Long Evans rats, calcitriol 1, 2 or 3 μg/mL; format: in vivo, rat
[6] = test system: patients; experiment: Phase I dose-escalation study: safety and tolerability in cancer patients on taxane-based chemotherapy; format: in vivo
Description: The dosage will be escalated if the clinical toxicity is declared acceptable (see below). five dose levels will be considered for escalation (10, 20, 40, 60 and 80 μg/mL). Determination of dose limiting toxicity (DLT, defined in section 8.2) will be made during the first 28 days of topical treatment. No intrapatient dose escalation will be performed. […] The dose escalation scheme (Table 8.1) will occur as follows:
If the patient presents with symptoms of hypercalcemia, serum calcium should be determined and treatment should be stopped immediately. Hypercalcemia will be defined using CTCAE version 4.0 grade 3 (or higher), which is defined as serum calcium >12.5-13.5 mg/dL; >3.1-3.4 mmol/L or ionized calcium >1.6-1.8 mmol/L and hospitalization is indicated. For patients with asymptomatic hypercalcemia determined by elevated serum calcium, their ionized calcium levels will first be checked. If the ionized calcium level is in fact elevated, the study drug will be stopped. If the ionized calcium level is normal, the patient will remain on the study and ionized calcium will be followed rather than serum calcium.
Each patient underwent PK analysis, adverse event monitoring, patient self-assessment diaries (1-10 scale), and blinded photographic assessments. […] Toxicity was determined on a weekly basis during Cycle 1 (i.e., the first 28 days of topical agent application) and subsequently every four weeks. Patients were managed with adequate safety (adverse event) monitoring and pharmacokinetic (PK) analysis in order to determine levels of exposure.

[7] = Preliminary animal toxicology study; format: in vivo; details: dose of about 100 μg

## C=C1/C(=C\C=C2/CCC[C@]3(C)[C@@H]([C@H](C)CCCC(C)(C)O)CC[C@@H]23)C[C@@H](O)C[C@@H]1O [Calcitriol, (5Z,7E)-9,10-secocholesta-5,7.10(19Hriene-1 a,33.25-triol]
[1]; at 16 hrs
  SLC1A1 mRNA Regulation Pattern: upregulated at
[1]; at 48 hours
  KCNN4 mRNA Regulation Pattern: upregulated at 48
[1]
  KCNB2 mRNA Regulation Pattern: upregulated
[1]; listed as Vitamin D3
  KCNB2 mRNA Regulation Pattern: upregulated until
[2]; SKMEL-28
  effect of calcitriol on cell growth: no significant growth promoting or growth inhibiting effects
  effect of calcitriol on the cytotoxic effect of Doxorubicin: did not appear to appreciably alter
[2]; SKMEL-28, 0.1 μg/mL calcitriol
  5-FU ED50 curve with vs without calcitriol: not significantly different
[3]; ADM, Paclitaxel and Etoposide, after Two Rounds
  Survival Rate, %: 80%
[3]; CTX and ADM, after Two Rounds
  Survival Rate, %: 50%
[3]; CTX, ADM and ARA-C, after Two Rounds
  Survival Rate, %: 78%
[3]; CTX, Paclitaxel and Etoposide, after Two Rounds
  Survival Rate, %: 83%
[3]; CTX, after Two Rounds of Chemotherapy
  Survival Rate, %: 25%
[3]; Long Evans rats injected with MIAC51, topical calcitriol
  protection of the cancer cells from chemotherapy (cyclophosphamide): does not protect the cancer cells from chemotherapy; also recorded: have not shown protection; also recorded: not protecting the cancer cells
[3]; chloroleukemia induced (MIAC51), calcitriol 1-3 μg/mL study
  effect on the cure rate associated with cyclophosphamide: did not affect the cure rate
[3]; cyclophosphamide and doxorubicin group, cure rate 50-55%
  interference with the cure rate: did not interfere with the cure rate
[3]; cyclophosphamide group, cure rate 20-25%
  interference with the cure rate: did not interfere with the cure rate
[3]; cyclophosphamide, doxorubicin and cytarabine group, cure rate 75-80%
  interference with the cure rate: did not interfere with the cure rate
[3]; cyclophosphamide, paclitaxel and etoposide group, cure rate 78-83%
  interference with the cure rate: did not interfere with the cure rate
[3]; doxorubicin, paclitaxel and etoposide group, cure rate 80-83%
  interference with the cure rate: did not interfere with the cure rate
[3]; number of animals free from leukemia
  effect on the efficacy of the chemotherapy agents: did not affect the efficacy of the chemotherapy agents
[4]
  no-observed-adverse-effect-level (NOAEL): 10.31 µg/mL
[5]; 1 μg/mL
  location of hair growth: limited to the treated area
[5]; 3 μg/mL
  location of hair growth: also observed on the dorsal region
[5]; 6-hour exposure
  protection from CIA: complete protection
[5]; 1.5 hour exposure
  protection from CIA: no protection
[6]; 5 μg/mL × 1 mL BID
  AEs Related to Study Drug: Mild Scalp pain (1)
[6]; all dose levels
  serious adverse events reported (number): 25
[6]; human, in vivo
  dose limiting toxicities (DLTs): No dose limiting toxicities
[6]; human, in vivo, 3 months
  serious adverse events unrelated/unlikely to the study drug: 84%
  serious adverse events unrelated/unlikely to the study drug (number): 21
[6]; one patient, 40 μg/mL, passing a renal calculi
  serious adverse events possibly related to the study drug (number): 4
[6]; up to 80 μg/mL
  maximum tolerated dose (MTD): not detected
[7]
  dermal irritation: no dermal irritation
  epidermal / dermal penetration: excellent epidermal penetration without substantial dermal penetration
